Experimental data from patent US20200360331A1, “COMPOSITIONS COMPRISING 15-HEPE AND/OR 15-HETrE AND METHODS OF TREATING OR PREVENTING CARDIOMETABOLIC DISEASE, METABOLIC SYNDROME, AND/OR RELATED DISEASES” (Afimmune Limited, priority 2019, published 2020).
“Also recorded” adds a separate entry of the source.

Experiments:
TGF-β = assay: UUO study: quantitative RT-PCR of kidney, TGF-β; type: in vivo, C57BL/6 mice; conditions: UUO mice kidney
Method: (§1) Quantitative RT-PCR: Total ribonucleic acid (RNA) was extracted from kidney samples using RNAiso (Takara Bio, Japan) according to the manufacturer's instructions. One μg of RNA was reverse-transcribed using a reaction mixture containing 4.4 micromolar (mM) of magnesium chloride (MgCl2) (F. Hoffmann-La Roche, Switzerland), 40 U RNase inhibitor (Toyobo, Japan), 0.5 mM dNTP (Promega, USA), 6.28 μM random hexamer (Promega), 5× first strand buffer (Promega), 10 mM dithiothreitol (Invitrogen, USA) and 200 U MMLV-RT (Invitrogen) in a final volume of 20 μL. The reaction was carried out for 1 hour at 37° C., followed by 5 minutes at 99° C. Real-time PCR was performed using real-time PCR DICE and TB Green™ Premix Ex Taq™ II (Takara Bio). To calculate the relative microRNA (mRNA) expression level, the expression of each gene (e.g., α-SMA, TIMP-1, TGF-β and Collagen Type 1) was normalized to that of reference gene 36B4 (gene symbol: Rplp0). Information regarding the PCR-primer sets and the plate layout are described in Tables 1 and 2.

NAFLD patients = assay: Phase IIa NAFLD study: OWL Liver Care diagnostic test for NASH; type: in vivo, human
Text: The study was planned to include 96 evaluable patients with 32 patients randomized per treatment group.
OWL Liver Care is a test that was developed based on the plasma lipidomics in biopsy-confirmed NASH patients and provides high predictive values. OWL Liver Care has an area under the curve (AUC) of 0.88 for distinguishing NAFLD and normal liver patients and an AUC of 0.79 for distinguishing NAFLD without steatohepatitis and NASH patients.

Alpha-SMA = assay: BDL study: quantitative RT-PCR of liver, Alpha-SMA; type: in vivo, C57BL/6J mice; conditions: BDL mice liver
Method: as §1, with “from liver” for “from kidney”, “4.4 mM” for “4.4 micromolar (mM) of”, “relative mRNA” for “relative microRNA (mRNA)”, “gene (α-SMA,” for “gene (e.g., α-SMA,”, “Tables 8” for “Tables 1”, “and 9.” for “and 2.”

Collagen Type 1 = assay: UUO study: quantitative RT-PCR of kidney, Collagen Type 1; type: in vivo, C57BL/6 mice; conditions: UUO mice kidney
Method: as §1

[1] = system: TβR-III (type III TGF-β receptor, betaglycan); assay: Sucrose density gradient analysis in Mv1Lu cells, TβR-III; type: cell-based, mink; conditions: 100 μM, 0, 1, 4 and 24 hours
Method: Sucrose gradient ultracentrifugation and confocal microscopy were used to identify 15-HEPE induced microdomain translocation of TGF-β receptors by sucrose. Sucrose density gradient analysis of TGF-β receptors was conducted in the plasma membranes of Mv1Lu cells (mink lung epithelial cell) treated with 100 μM of 15-HEPE and an equal volume of DMSO (dimethyl sulfoxide) at 37° C. for 0, 1, 4, and 24 hours, and the cell lysates from these treated cells were subjected to sucrose density gradient ultracentrifugation. The sucrose gradient fractions were then analyzed by Western blot analysis using anti-TβR-I (type I TGF-β receptor), anti-TβR-II (type II TGF-β receptor), anti-TβR-III (type III TGF-β receptor, betaglycan), anti-EGFR (epidermal growth factor receptor), and anti-caveolin-1 antibodies. The lipid raft/caveolae, and non-lipid raft microdomain localization of TβR-I, TβR-II, TβR-III, EGFR and caveolin-1 in the plasma membrane of untreated cells or cells treated with 15-HEPE were assessed to determine the effects of 15-HEPE on the membrane microdomain localization of the TGF-β receptors. […]

[2] = relative mRNA normalized to 36B4, 50 mg/kg PO QD Day 0-13
[3] = relative mRNA normalized to 36B4, 500 mg/kg PO QD Day 0-13
[4] = 1 g per day, baseline diagnosis NASH
[5] = 1 g per day, baseline diagnosis No NAFLD
[6] = 1 g per day, baseline diagnosis Steatosis
[7] = 2 g per day, baseline diagnosis NASH
[8] = 2 g per day, baseline diagnosis No NAFLD
[9] = 2 g per day, baseline diagnosis Steatosis

Question: With `CC/C=C\CC(O)/C=C/C=C\C/C=C\C/C=C\CCCC(=O)O` (stereo not drawn) [DS102, 15-hydroxy-eicosa-5Z,8Z,11Z,13E,17Z-pentaenoic acid] as the molecule, how does the TGF-β gene expression (TGF-β; [2]) read?
Answer: 4.31 ± 0.69

Question: And the TGF-β gene expression (TGF-β; [3])?
Answer: 5.37 ± 0.76

Question: And the “OWL test change in diagnosis (Week 16 vs. baseline): Improvement, patients” value (“OWL test change … Improvement, patients” below) (NAFLD patients; [4])?
Answer: 5

Question: And the “OWL test change in diagnosis (Week 16 vs. baseline): Stable, patients” value (“OWL test change in diagnosis … Stable, patients” for short) (NAFLD patients; [4])?
Answer: 14

Question: And the “OWL test change in diagnosis … Stable, patients” value (NAFLD patients; [5])?
Answer: 3

Question: What about the “OWL test change in diagnosis (Week 16 vs. baseline): Worsening, patients” value (shortened to “OWL test change … Worsening, patients”) (NAFLD patients; [5]) of the same molecule?
Answer: 1

Question: What about the “OWL test change in diagnosis … Stable, patients” value (NAFLD patients; [6]) of the same molecule?
Answer: 2

Question: And the “OWL test change … Worsening, patients” value (NAFLD patients; [6])?
Answer: 3

Question: And the “OWL test change … Improvement, patients” value (NAFLD patients; [7])?
Answer: 5

Question: And the “OWL test change in diagnosis … Stable, patients” value (NAFLD patients; [7])?
Answer: 7

Question: What about the “OWL test change in diagnosis … Stable, patients” value (NAFLD patients; [8]) of the same molecule?
Answer: 2*, **

Question: And the “OWL test change … Worsening, patients” value (NAFLD patients; [8])?
Answer: 1

Question: What about the “OWL test change … Improvement, patients” value (NAFLD patients; [9]) of the same molecule?
Answer: 1

Question: What about the “OWL test change in diagnosis … Stable, patients” value (NAFLD patients; [9]) of the same molecule?
Answer: 9

Question: And the “OWL test change … Worsening, patients” value (NAFLD patients; [9])?
Answer: 4

Question: What about the “OWL liver care diagnosed NASH” value (NAFLD patients; Week 16, dose dependent, compared to placebo) of the same molecule?
Answer: significantly improved and normalized

Question: What about the “α-SMA mRNA expression level compared with the Vehicle group” value (Alpha-SMA; 500 mg/kg) of the same molecule?
Answer: tended to decrease; also recorded: trend approaching significance

Question: And the “α-SMA mRNA expression level vs Vehicle group” value (Alpha-SMA; DS102 treatment groups)?
Answer: no significant differences

Question: What about the Alpha-SMA gene expression (Alpha-SMA; [2]) of the same molecule?
Answer: 3.21 ± 1.67

Question: And the Alpha-SMA gene expression (Alpha-SMA; relative mRNA normalized to 36B4, 250 mg/kg PO QD Day 0-13)?
Answer: 2.66 ± 1.33

Question: What about the Alpha-SMA gene expression (Alpha-SMA; [3]) of the same molecule?
Answer: 1.42 ± 0.75

Question: What about the “Collagen Type 1 gene expression” value (Collagen Type 1; [2]) of the same molecule?
Answer: 11.80 ± 1.78

Question: And the “Collagen Type 1 gene expression” value (Collagen Type 1; [3])?
Answer: 14.09 ± 2.88

Question: And the “localization and abundance of TβR-III” value [1]?
Answer: did not change the localization and abundance
